Target: T1, PDE9A2 (Homo sapiens, UniProt O76083)
T1 construct: purchased Reaction Biology Corporation, Malvern, Pa
Assay: Phosphodiesterase Enzyme Screening Assay, PDE9A2 (Caliper LabChip mobility-shift)
Type: biochemical
Conditions: 10 concentrations, 4.0 μM cGMP substrate, 1 hour at R.T.; read-out: Band (PDE9A2 IC50)
Source text: Compounds of the invention were screened against PDE1A, PDE1B, PDE2A, PDE3A, PDE3B, PDE4A1A, PDE4B1, PDE4D3, PDE5A1, PDE6C, PDE7A, PDE8A1, PDE9A2, PDE10A2 AND PDE11A isoforms of the phosphodiesterase enzyme to determine activity and overall selectivity through comparative analysis. The assay generally consists of testing the compounds of the invention at 10 concentrations. Where 8-methoxy-IBMX and Zaprinast were used as reference inhibitors.
The phosphodiesterase enzyme isoforms were obtained from a commercial retailer (Reaction Biology Corporation, Malvern, Pa.) for use in the instant screening assay.
The analysis was completed using the Caliper LabChip 3000 and a 12-sipper LabChip. LabChip assays are separations-based, meaning that the product and substrate are electrophoretically separated, thereby minimizing interferences and yielding the highest data quality available on any screening platform. Z′ factors for both the EZ Reader and LC3000 enzymatic assays are routinely in the 0.8 to 0.9 range. High Z′ values, few false positives, few false negatives and analytical quality reproducibility are the reasons cited for the increasing reliance on the LabChip assays.
The off-chip incubation mobility-shift phosphodiesterase assay uses a microfluidic chip to measure the conversion of a fluorescent cyclic AMP substrate to a 5′-AMP product, or a cyclic GMP substrate to a 5′-GMP product. The reaction mixture, from a microtiter plate well, is introduced through a capillary sipper onto the chip, where the fluorescent substrate and product are separated by electrophoresis and detected via laser-induced fluorescence. […] The precision of microfluidics allows researchers to detect subtle interactions between drug candidates and therapeutic targets. The technology is able to detect both strong and weak inhibitors with high accuracy, and routinely identifies drug candidates that conventional techniques miss.
Reactions were carried out in 100 mM HEPES (pH 7.5), 5 mM MgCl2, 1 mM DTT, 0.003% Brij, 4.0 μM cGMP substrate. The reaction was started by addition of cGMP or cAMP and incubated for 1 hour at R.T. The reaction was terminated by the addition of stop buffer containing 100 mM HEPES (pH 7.5), 15 mM EDTA, 0.015% Brij-35, 5% DMSO. Cyclic AMP/GMP substrate and 5′-AMP/5′-GMP product were separated by charge using electrophoretic mobility shift. Product formed was compared to control wells to determine inhibition or enhancement of enzyme activity.
One or more reference compounds, depending on phosphodiesterase isoform, selected from 8-methoxy-IBMX, Zaprinast, Trequinsin, Pentoxifyline, Rolipram, and Vinpocetine, Dipyridamole, and BRL-50481 were run alongside client samples to ensure data quality. The resulting IC50 is compared against the historical average and must be within 3-fold of this average.
Data points were averages of quadruplicate wells and error bars represented the SEM for each point. IC50s were determined using GraphPad Prism Version 5.01 and the log (inhibitor) vs. response variable slope curve fit.

T1 sequence (O76083 1-533 isoform O76083-2): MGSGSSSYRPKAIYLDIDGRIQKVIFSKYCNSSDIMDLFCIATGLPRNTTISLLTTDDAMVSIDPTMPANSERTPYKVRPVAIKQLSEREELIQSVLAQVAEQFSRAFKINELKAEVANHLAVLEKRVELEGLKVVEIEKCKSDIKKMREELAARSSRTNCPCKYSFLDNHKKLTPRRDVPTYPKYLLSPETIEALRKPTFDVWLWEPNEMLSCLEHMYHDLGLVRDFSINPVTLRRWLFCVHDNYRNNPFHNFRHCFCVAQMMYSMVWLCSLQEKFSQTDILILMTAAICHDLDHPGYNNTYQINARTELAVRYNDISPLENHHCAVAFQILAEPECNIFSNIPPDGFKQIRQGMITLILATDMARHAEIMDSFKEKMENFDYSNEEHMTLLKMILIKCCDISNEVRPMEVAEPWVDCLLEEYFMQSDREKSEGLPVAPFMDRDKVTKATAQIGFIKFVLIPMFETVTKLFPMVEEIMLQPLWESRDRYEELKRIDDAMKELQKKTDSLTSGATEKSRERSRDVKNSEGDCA

SMILES	IC50
Cc1ccc(Cl)cc1-c1ncc2c(=O)[nH]c([C@@H]3CNC[C@H]3C)nn12 (relative stereo) [(−)-7-(5-chloro-2-methylphenyl)-2-((3,4-trans)-4-methylpyrrolidin-3-yl)imidazo[5,1-f][1,2,4]triazin-4(3H)-one]	1000 to 10000 nM
C[C@@H]1CN(Cc2ccccc2F)C[C@H]1c1nn2c(C3CCOCC3)ncc2c(=O)[nH]1 (single isomer, unassigned) [(+)-2-((3,4-trans)-1-(2-fluorobenzyl)-4-methylpyrrolidin-3-yl)-7-(tetrahydro-2H-pyran-4-yl)imidazo[5,1-f][1,2,4]triazin-4(3H)-one]	< 1000 nM
C[C@@H]1CN(Cc2ccc(F)cc2)C[C@H]1c1nn2c(C3CCOCC3)ncc2c(=O)[nH]1 (single isomer, unassigned) [(+)-2-((3,4-trans)-1-(4-fluorobenzyl)-4-methylpyrrolidin-3-yl)-7-(tetrahydro-2H-pyran-4-yl)imidazo[5,1-f][1,2,4]triazin-4(3H)-one]	< 1000 nM
COc1cccc(CN2C[C@@H](C)[C@H](c3nn4c(C5CCOCC5)ncc4c(=O)[nH]3)C2)n1 (single isomer, unassigned) [(+)-2-((3,4-trans)-1-((6-methoxypyridin-2-yl)methyl)-4-methylpyrrolidin-3-yl)-7-(tetrahydro-2H-pyran-4-yl)imidazo[5,1-f][1,2,4]triazin-4(3H)-one]	< 1000 nM
C[C@@H]1CN(Cc2cn3ncccc3n2)C[C@H]1c1nn2c(C3CCOCC3)ncc2c(=O)[nH]1 (single isomer, unassigned) [(+)-2-((3,4-trans)-1-(imidazo[1,2-b]pyridazin-2-ylmethyl)-4-methylpyrrolidin-3-yl)-7-(tetrahydro-2H-pyran-4-yl)imidazo[5,1-f][1,2,4]triazin-4(3H)-one]	< 1000 nM
C[C@@H]1CN(Cc2ccc3nccn3n2)C[C@H]1c1nn2c(C3CCOCC3)ncc2c(=O)[nH]1 (single isomer, unassigned) [(+)-2-((3,4-trans)-1-(imidazo[1,2-b]pyridazin-6-ylmethyl)-4-methylpyrrolidin-3-yl)-7-(tetrahydro-2H-pyran-4-yl)imidazo[5,1-f][1,2,4]triazin-4(3H)-one]	< 1000 nM
CCS(=O)(=O)N1CCC(c2ncc3c(=O)[nH]c([C@@H]4CN(Cc5ccccc5)C[C@H]4C)nn23)CC1 (single isomer, unassigned) [(+)-2-((3,4-trans)-1-benzyl-4-methylpyrrolidin-3-yl)-7-(1-(ethylsulfonyl)piperidin-4-yl)imidazo[5,1-f][1,2,4]triazin-4(3H)-one]	< 1000 nM
C[C@@H]1CN(Cc2ccccc2)C[C@H]1c1nn2c(C(C)(C)O)ncc2c(=O)[nH]1 (single isomer, unassigned) [(+)-2-((3,4-trans)-1-benzyl-4-methylpyrrolidin-3-yl)-7-(2-hydroxypropan-2-yl)imidazo[5,1-f][1,2,4]triazin-4(3H)-one]	1000 to 10000 nM
C[C@@H]1CN(Cc2ccccc2)C[C@H]1c1nn2c(C3CCC(F)(F)CC3)ncc2c(=O)[nH]1 (single isomer, unassigned) [(+)-2-((3,4-trans)-1-benzyl-4-methylpyrrolidin-3-yl)-7-(4,4-difluorocyclohexyl)imidazo[5,1-f][1,2,4]triazin-4(3H)-one]	< 1000 nM
Cc1cc(F)ccc1-c1ncc2c(=O)[nH]c([C@@H]3CN(Cc4ccccc4)C[C@H]3C)nn12 (single isomer, unassigned) [(+)-2-((3,4-trans)-1-benzyl-4-methylpyrrolidin-3-yl)-7-(4-fluoro-2-methylphenyl)imidazo[5,1-f][1,2,4]triazin-4(3H)-one]	< 1000 nM
Cc1ccc(Cl)cc1-c1ncc2c(=O)[nH]c([C@@H]3CN(Cc4ccccc4)C[C@H]3C)nn12 (single isomer, unassigned) [(+)-2-((3,4-trans)-1-benzyl-4-methylpyrrolidin-3-yl)-7-(5-chloro-2-methylphenyl)imidazo[5,1-f][1,2,4]triazin-4(3H)-one]	< 1000 nM
C[C@@H]1CN(Cc2ccccc2)C[C@H]1c1nn2c(-c3ccoc3)ncc2c(=O)[nH]1 (single isomer, unassigned) [(+)-2-((3,4-trans)-1-benzyl-4-methylpyrrolidin-3-yl)-7-(furan-3-yl)imidazo[5,1-f][1,2,4]triazin-4(3H)-one]	< 1000 nM
C[C@@H]1CN(Cc2cnccn2)C[C@H]1c1nn2c(C3CCOCC3)ncc2c(=O)[nH]1 (single isomer, unassigned) [(+)-2-((3,4-trans)-4-methyl-1-(pyrazin-2-ylmethyl)pyrrolidin-3-yl)-7-(tetrahydro-2H-pyran-4-yl)imidazo[5,1-f][1,2,4]triazin-4(3H)-one]	< 1000 nM
C[C@@H]1CN(Cc2ccccn2)C[C@H]1c1nn2c(C3CCOCC3)ncc2c(=O)[nH]1 (single isomer, unassigned) [(+)-2-((3,4-trans)-4-methyl-1-(pyridin-2-ylmethyl)pyrrolidin-3-yl)-7-(tetrahydro-2H-pyran-4-yl)imidazo[5,1-f][1,2,4]triazin-4(3H)-one]	< 1000 nM
C[C@@H]1CN(Cc2ncccn2)C[C@H]1c1nn2c(C3CCOCC3)ncc2c(=O)[nH]1 (single isomer, unassigned) [(+)-2-((3,4-trans)-4-methyl-1-(pyrimidin-2-ylmethyl)pyrrolidin-3-yl)-7-(tetrahydro-2H-pyran-4-yl)imidazo[5,1-f][1,2,4]triazin-4(3H)-one]	< 1000 nM
C[C@@H]1CN(Cc2ncc3ccccc3n2)C[C@H]1c1nn2c(C3CCOCC3)ncc2c(=O)[nH]1 (single isomer, unassigned) [(+)-2-((3,4-trans)-4-methyl-1-(quinazolin-2-ylmethyl)pyrrolidin-3-yl)-7-(tetrahydro-2H-pyran-4-yl)imidazo[5,1-f][1,2,4]triazin-4(3H)-one]	< 1000 nM
C[C@@H]1CN(Cc2ccc3ccccc3n2)C[C@H]1c1nn2c(C3CCOCC3)ncc2c(=O)[nH]1 (single isomer, unassigned) [(+)-2-((3,4-trans)-4-methyl-1-(quinolin-2-ylmethyl)pyrrolidin-3-yl)-7-(tetrahydro-2H-pyran-4-yl)imidazo[5,1-f][1,2,4]triazin-4(3H)-one]	< 1000 nM
CCS(=O)(=O)N1CCC(c2ncc3c(=O)[nH]c([C@@H]4CN(Cc5ncccn5)C[C@H]4C)nn23)CC1 (single isomer, unassigned) [(+)-7-(1-(ethylsulfonyl)piperidin-4-yl)-2-((3,4-trans)-4-methyl-1-(pyrimidin-2-ylmethyl)pyrrolidin-3-yl)imidazo[5,1-f][1,2,4]triazin-4(3H)-one]	1000 to 10000 nM
CC(=O)N1CCC(c2ncc3c(=O)[nH]c([C@@H]4CN(Cc5ccccc5)C[C@H]4C)nn23)CC1 (single isomer, unassigned) [(+)-7-(1-acetylpiperidin-4-yl)-2-((3,4-trans)-1-benzyl-4-methylpyrrolidin-3-yl)imidazo[5,1-f][1,2,4]triazin-4(3H)-one]	< 1000 nM
CC(=O)N1CCC(c2ncc3c(=O)[nH]c([C@@H]4CN(Cc5ncccn5)C[C@H]4C)nn23)CC1 (single isomer, unassigned) [(+)-7-(1-acetylpiperidin-4-yl)-2-((3,4-trans)-4-methyl-1-(pyrimidin-2-ylmethyl)pyrrolidin-3-yl)imidazo[5,1-f][1,2,4]triazin-4(3H)-one]	1000 to 10000 nM
